Our source for the Ki values is patent US8394952B2 (Vertex Pharmaceuticals Incorporated, priority 2006, dated 2013).

The structures appear in SMILES notation.

The assay deals with Plk1 (Homo sapiens, UniProt P53350). The assay is described as follows: biochemical.
Chain of Plk1 (P53350 20-338): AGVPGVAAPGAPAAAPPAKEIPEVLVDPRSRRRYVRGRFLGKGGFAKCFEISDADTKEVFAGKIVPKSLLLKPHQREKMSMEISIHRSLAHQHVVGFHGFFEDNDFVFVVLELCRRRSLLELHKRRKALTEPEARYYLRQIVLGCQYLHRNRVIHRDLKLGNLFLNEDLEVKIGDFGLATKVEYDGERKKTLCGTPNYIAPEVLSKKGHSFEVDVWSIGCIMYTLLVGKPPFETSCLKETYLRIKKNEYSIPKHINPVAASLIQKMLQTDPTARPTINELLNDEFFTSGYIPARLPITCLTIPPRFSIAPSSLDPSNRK
In the case of `CNC(=O)c1ccc(Nc2ncc3c(n2)N(C2CCCC2)CC(C)(C)C(=O)N3C)cc1` [Compound I-80, 4-(9-cyclopentyl-6,7,8,9-tetrahydro-5,7,7-trimethyl-6-oxo-5H-pyrimido[4,5-b][1,4]diazepin-2-ylamino)-N-methylbenzamide], the Ki is < 0.01 µM. The molecule `CN1C(=O)C(C)(C)CN(C2CCCC2)c2nc(Nc3cccc4[nH]ncc34)ncc21` [Compound I-81, 2-(1H-indazol-4-ylamino)-9-cyclopentyl-8,9-dihydro-5,7,7-trimethyl-5H-pyrimido[4,5-b][1,4]diazepin-6(7H)-one] came in with a Ki of 0.01 to 0.1 µM. As for `CN1CCN(c2ccc(Nc3ncc4c(n3)N(C3CCCC3)CC(C)(C)C(=O)N4C)cc2)CC1` [Compound I-85, 2-(4-(4-methylpiperazin-1-yl)phenylamino)-9-cyclopentyl-8,9-dihydro-5,7,7-trimethyl-5H-pyrimido[4,5-b][1,4]diazepin-6(7H)-one], the figure is < 0.01 µM; as for `CN1C(=O)C(C)(C)CN(C2CCCC2)c2nc(Nc3ccc(CN4CCOCC4)cc3)ncc21` [Compound I-86], 0.01 to 0.1 µM. Turning to `CN1C(=O)C(C)(C)CN(C2CCCC2)c2nc(Nc3ccc(C(=O)NCCO)cc3)ncc21` [Compound I-87, 4-(9-cyclopentyl-6,7,8,9-tetrahydro-5,7,7-trimethyl-6-oxo-5H-pyrimido[4,5-b][1,4]diazepin-2-ylamino)-N-(2-hydroxyethyl)benzamide], the inhibition constant (Ki) is < 0.01 µM. Take `CN1C(=O)C(C)(C)CN(C2CCCC2)c2nc(Nc3cccc4cn[nH]c34)ncc21` [Compound I-89, 2-(1H-indazo-7-ylamino)-9-cyclopentyl-8,9-dihydro-5,7,7-trimethyl-5H-pyrimido[4,5-b][1,4]diazepin-6(7H)-one]: the Ki was 0.01 to 0.1 µM. The molecule `CN1C(=O)C(C)(C)CN(C2CCCC2)c2nc(Nc3ccccc3)ncc21` [Compound I-90, 9-cyclopentyl-8,9-dihydro-5,7,7-trimethyl-2-(phenylamino)-5H-pyrimido[4,5-b][1,4]diazepin-6(7H)-one] showed an inhibitory constant (Ki) of 0.01 to 0.1 µM.

In the case of `CN1C(=O)C(C)(C)CN(C2CCCC2)c2nc(Nc3cccc4cn(C)nc34)ncc21` [Compound I-91, 2-(2-methyl-2H-indazol-7-ylamino)-9-cyclopentyl-8,9-dihydro-5,7,7-trimethyl-5H-pyrimido[4,5-b][1,4]diazepin-6(7H)-one], the Ki is 0.01 to 0.1 µM.

With `CN1C(=O)C(C)(C)CN(C2CCCC2)c2nc(Nc3cccn4ncnc34)ncc21` [Compound I-92, 2-([1,2,4]triazolo[1,5-a]pyridin-8-ylamino)-9-cyclopentyl-8,9-dihydro-5,7,7-trimethyl-5H-pyrimido[4,5-b][1,4]diazepin-6(7H)-one], the Ki fell in the range of 0.01 to 0.1 µM. As for `COc1cc(C(=O)NC2CC2)ccc1Nc1ncc2c(n1)N(C1CCCC1)CC(C)(C)C(=O)N2C` [Compound I-93, 4-(9-cyclopentyl-6,7,8,9-tetrahydro-5,7,7-trimethyl-6-oxo-5H-pyrimido[4,5-b][1,4]diazepin-2-ylamino)-N-cyclopropyl-3-methoxybenzamide], the Ki is < 0.01 µM.

On to `COc1cc(C(=O)NC2CCC2)ccc1Nc1ncc2c(n1)N(C1CCCC1)CC(C)(C)C(=O)N2C` [Compound I-94, 4-(9-cyclopentyl-6,7,8,9-tetrahydro-5,7,7-trimethyl-6-oxo-5H-pyrimido[4,5-b][1,4]diazepin-2-ylamino)-N-cyclobutyl-3-methoxybenzamide], for which the Ki was < 0.01 µM. In the case of `COc1cc(C(=O)NC2CCN(C(=O)OC(C)(C)C)CC2)ccc1Nc1ncc2c(n1)N(C1CCCC1)CC(C)(C)C(=O)N2C` [Compound I-95], the Ki is < 0.01 µM.

On to `CNC(=O)c1ccc(Nc2ncc3c(n2)N([C@@H]2CCCN(C)C2)CC(C)(C)C(=O)N3C)c(OC)c1` [Compound I-96, 4-(6,7,8,9-tetrahydro-5,7,7-trimethyl-9-((R)-1-methylpiperidine-3-yl)-6-oxo-5H-pyrimido[4,5-b][1,4]diazepin-2-ylamino)-3-methoxy-N-methylbenzamide], for which the Ki is < 0.01 µM. With `CNC(=O)c1ccc(Nc2ncc3c(n2)N(C2CCN(C)CC2)CC(C)(C)C(=O)N3C)c(OC)c1` [Compound I-97, 4-(6,7,8,9-tetrahydro-5,7,7-trimethyl-9-((R)-1-methylpiperidine-4-yl)-6-oxo-5H-pyrimido[4,5-b][1,4]diazepin-2-ylamino)-3-methoxy-N-methylbenzamide], the Ki is 0.01 to 0.1 µM. `Cc1cc(O)n(-c2ccc(Nc3ncc4c(n3)N(C3CCCC3)CC(C)(C)C(=O)N4C)cc2)n1` [Compound I-98, 2-(4-(5-hydroxy-3-methyl-1H-pyrazol-1-yl)phenylamino)-9-cyclopentyl-8,9-dihydro-5,7,7-trimethyl-5H-pyrimido[4,5-b][1,4]diazepin-6(7H)-one] had a Ki of 0.01 to 0.1 µM. For `CN1C(=O)C(C)(C)CN(C2CCCC2)c2nc(Nc3ccc(-c4cc[nH]n4)cc3)ncc21` [Compound I-99, 2-(4-(1H-pyrazol-3-yl)phenylamino)-9-cyclopentyl-8,9-dihydro-5,7,7-trimethyl-5H-pyrimido[4,5-b][1,4]diazepin-6(7H)-one], the Ki is < 0.01 µM. For the molecule `COc1cc(C(=O)NC2CCNCC2)ccc1Nc1ncc2c(n1)N(C1CCCC1)CC(C)(C)C(=O)N2C` [Compound I-101], the Ki was < 0.01 µM. The molecule `COc1ccccc1Nc1ncc2c(n1)N(C1CCCC1)CC(C)(C)C(=O)N2C` [Compound I-102, 2-(2-methoxyphenylamino)-9-cyclopentyl-8,9-dihydro-5,7,7-trimethyl-5H-pyrimido[4,5-b][1,4]diazepin-6(7H)-one] returned a Ki of 0.01 to 0.1 µM.

With `COC(=O)Nc1ccc(Nc2ncc3c(n2)N(C2CCCC2)CC(C)(C)C(=O)N3C)c(OC)c1` [Compound I-103, Methyl 4-(9-cyclopentyl-5,7,7-trimethyl-6-oxo-6,7,8,9-tetrahydro-5H-pyrimido[4,5-b][1,4]diazepin-2-ylamino)-3-methoxyphenylcarbamate], the Ki is < 0.01 µM. As for `COCC(=O)Nc1ccc(Nc2ncc3c(n2)N(C2CCCC2)CC(C)(C)C(=O)N3C)c(OC)c1` [Compound I-104, N-(4-(9-cyclopentyl-5,7,7-trimethyl-6-oxo-6,7,8,9-tetrahydro-5H-pyrimido[4,5-b][1,4]diazepin-2-ylamino)-3-methoxyphenyl)-2-methoxyacetamide], the figure is < 0.01 µM; as for `COc1cc(C(=O)NCC(F)(F)F)ccc1Nc1ncc2c(n1)N(C1CCCC1)CC(C)(C)C(=O)N2C` [Compound I-105], < 0.01 µM.

Regarding `CN1C(=O)C(C)(C)CN(C2CCCC2)c2nc(Nc3ccc4[nH]c(=O)[nH]c4c3)ncc21` [Compound I-108, 2-(2,3-dihydro-2-oxo-1H-benzo[d]imidazol-6-ylamino)-9-cyclopentyl-8,9-dihydro-5,7,7-trimethyl-5H-pyrimido[4,5-b][1,4]diazepin-6(7H)-one], the Ki was < 0.01 µM. As to `CN1C(=O)C(C)(C)CN(C2CCCC2)c2nc(Nc3ccc4[nH][nH]c(=O)c4c3)ncc21` [Compound I-109, 2-(2,3-dihydro-3-oxo-1H-indazol-5-ylamino)-9-cyclopentyl-8,9-dihydro-5,7,7-trimethyl-5H-pyrimido[4,5-b][1,4]diazepin-6(7H)-one], the Ki was 0.01 to 0.1 µM. The molecule `CN1C(=O)C(C)(C)CN(C2CCCC2)c2nc(Nc3ccc4c(cnn4C)c3)ncc21` [Compound I-110, 2-(1-methyl-1H-indazol-5-ylamino)-9-cyclopentyl-8,9-dihydro-5,7,7-trimethyl-5H-pyrimido[4,5-b][1,4]diazepin-6(7H)-one] registered a Ki of 0.01 to 0.1 µM.

In the case of `CC(=O)Nc1cccc(Nc2ncc3c(n2)N(C2CCCC2)CC(C)(C)C(=O)N3C)c1` [Compound I-111, N-(3-(9-cyclopentyl-6,7,8,9-tetrahydro-5,7,7-trimethyl-6-oxo-5H-pyrimido[4,5-b][1,4]diazepin-2-ylamino)phenyl)acetamide], the Ki was 0.01 to 0.1 µM. `CC(=O)Nc1ccc(Nc2ncc3c(n2)N(C2CCCC2)CC(C)(C)C(=O)N3C)cc1` [Compound I-112, N-(4-(9-cyclopentyl-6,7,8,9-tetrahydro-5,7,7-trimethyl-6-oxo-5H-pyrimido[4,5-b][1,4]diazepin-2-ylamino)phenyl)acetamide]: the Ki is 0.01 to 0.1 µM.

Consider `CC[C@H]1CN(C2CCCC2)c2nc(Nc3ccc(C(=O)NC4CCN(C)CC4)cc3OC)ncc2N(C)C1=O` [Compound I-113, 4-((S)-9-cyclopentyl-7-ethyl-6,7,8,9-tetrahydro-5-methyl-6-oxo-5H-pyrimido[4,5-b][1,4]diazepin-2-ylamino)-3-methoxy-N-(1-methylpiperidin-4-yl)benzamide], for which the Ki is < 0.01 µM. `CN1C(=O)C(C)(C)CN(C2CCCC2)c2nc(Nc3ccc4[nH]ncc4c3)ncc21` [Compound I-114, 2-(1H-indazo-5-ylamino)-9-cyclopentyl-8,9-dihydro-5,7,7-trimethyl-5H-pyrimido[4,5-b][1,4]diazepin-6(7H)-one] showed a Ki of 0.01 to 0.1 µM. In turn, `CN1C(=O)C(C)(C)CN(C2CCCC2)c2nc(Nc3cccc(N)c3)ncc21` [Compound I-116, 2-(3-aminophenylamino)-9-cyclopentyl-8,9-dihydro-5,7,7-trimethyl-5H-pyrimido[4,5-b][1,4]diazepin-6(7H)-one] had a Ki of 0.01 to 0.1 µM. As for `CN1C(=O)C(C)(C)CN(C2CCCC2)c2nc(Nc3ccc(N)cc3)ncc21` [Compound I-117, 2-(4-aminophenylamino)-9-cyclopentyl-8,9-dihydro-5,7,7-trimethyl-5H-pyrimido[4,5-b][1,4]diazepin-6(7H)-one], the figure is 0.01 to 0.1 µM. `CCc1cc(C(=O)NC)ccc1Nc1ncc2c(n1)N(C1CCCC1)CC(C)(C)C(=O)N2C` [Compound I-118, 4-(9-cyclopentyl-6,7,8,9-tetrahydro-5,7,7-trimethyl-6-oxo-5H-pyrimido[4,5-b][1,4]diazepin-2-ylamino)-3-ethyl-N-methylbenzamide]: the Ki was < 0.01 µM.

Turning to `CC[C@H]1CN(C2CCCC2)c2nc(Nc3ccc(C(=O)NC4CCC4)cc3OC)ncc2N(C)C1=O` [Compound I-119, 4-((S)-9-cyclopentyl-7-ethyl-6,7,8,9-tetrahydro-5-methyl-6-oxo-5H-pyrimido[4,5-b][1,4]diazepin-2-ylamino)-N-cyclobutyl-3-methoxybenzamide], the Ki is < 0.01 µM.

As usually defined, the Ki is the dissociation constant of the complex between target and ligand, obtained from inhibition or displacement. Low values mean tighter binding, high ones weaker binding.
